The structures appear in SMILES notation. Several values for one entry are separate records, joined by “and”; a condition that tells them apart may be missing. Equal entries are not always repeated.

Data on 2 molecules can be found in patent US7405207B2, “Nebulizer formulations of dehydroepiandrosterone and methods of treating asthma or chronic obstructive pulmonary disease using compositions thereof” (Epigenesis Pharmaceuticals, Inc., priority 2002, dated 2008).

Type in all cases: physicochemical
Series [1] is described as follows: Stability of anhydrous DHEA-S and DHEA-S dihydrate with and without lactose (HPLC, DHEA formed). From the text:
These conditions were used to stress the formulation in order to predict its long-term stability results.
The primary degradant is dehydroepiandrosterone or DHEA. […] The materials on accelerated storage become more cohesive with time as evidenced by clumping during sample weighing for chemical analysis. […] This is a considerable disadvantage since lactose is the most commonly used inhalation excipient for dry powder formulations. Continuing with the virtually anhydrous form would mean limiting formulations to neat powder or undertaking more comprehensive safety studies to use a novel excipient.

Series [2] is described as follows: Short-term solution stability. The note with it: 7.5 mg/mL in 0.12% NaCl, room temperature. The method, then:
Stability Studies. […] Aliquots of this solution are filled into clear glass vials and stored at room temperature (24-26° C.) and at 40° C. The samples are checked daily for DHEA-S content, DHEA content, and appearance. For each time point, duplicate samples are withdrawn and diluted from each vial.

A short description of the next series: Solubility of DHEA-S. Conditions: 20 mM Na+ (0.12% NaCl), Ksp of 1316 mM^2, 15° C. From the text: Inhalation of pure water can produce a cough stimulus.

As for `CC12CCC3C(CC=C4CC(OS(=O)(=O)[O-])CCC43C)C1CCC2=O.[Na+]` (stereo not shown) [DHEA-S Dihydrate, dehydroepiandrosterone sodium sulfate dihydrate], the water content in series [1] (after accelerated storage, one week at 50° C.) was 8.66%; in series [1] (starting value) it was 8.8%.
For the molecule `C[C@]12CC[C@H](OS(=O)(=O)[O-])CC1=CC[C@@H]1[C@@H]2CC[C@]2(C)C(=O)CC[C@@H]12.[Na+]` [DHEA-S, sodium dehydroepiandrostenone sulfate], the solution stability result in series [2] was “stable for at least one day”. In the series “Solubility of DHEA-S”, the “calculated DHEA-S concentration (solubility)” value is 27.5 mM and 10.7 mg/mL.
